The structures appear in SMILES notation. Where only a bound is given, the exact number is not on record here.

As a reminder, the EC50 is the concentration at which the effect is half-maximal.

The experiment deals with T1, Recombinant human ASK1 kinase (Homo sapiens, UniProt Q99683).
T1 construct: purchased Invitrogen Inc
T1 sequence (Q99683 1-1374): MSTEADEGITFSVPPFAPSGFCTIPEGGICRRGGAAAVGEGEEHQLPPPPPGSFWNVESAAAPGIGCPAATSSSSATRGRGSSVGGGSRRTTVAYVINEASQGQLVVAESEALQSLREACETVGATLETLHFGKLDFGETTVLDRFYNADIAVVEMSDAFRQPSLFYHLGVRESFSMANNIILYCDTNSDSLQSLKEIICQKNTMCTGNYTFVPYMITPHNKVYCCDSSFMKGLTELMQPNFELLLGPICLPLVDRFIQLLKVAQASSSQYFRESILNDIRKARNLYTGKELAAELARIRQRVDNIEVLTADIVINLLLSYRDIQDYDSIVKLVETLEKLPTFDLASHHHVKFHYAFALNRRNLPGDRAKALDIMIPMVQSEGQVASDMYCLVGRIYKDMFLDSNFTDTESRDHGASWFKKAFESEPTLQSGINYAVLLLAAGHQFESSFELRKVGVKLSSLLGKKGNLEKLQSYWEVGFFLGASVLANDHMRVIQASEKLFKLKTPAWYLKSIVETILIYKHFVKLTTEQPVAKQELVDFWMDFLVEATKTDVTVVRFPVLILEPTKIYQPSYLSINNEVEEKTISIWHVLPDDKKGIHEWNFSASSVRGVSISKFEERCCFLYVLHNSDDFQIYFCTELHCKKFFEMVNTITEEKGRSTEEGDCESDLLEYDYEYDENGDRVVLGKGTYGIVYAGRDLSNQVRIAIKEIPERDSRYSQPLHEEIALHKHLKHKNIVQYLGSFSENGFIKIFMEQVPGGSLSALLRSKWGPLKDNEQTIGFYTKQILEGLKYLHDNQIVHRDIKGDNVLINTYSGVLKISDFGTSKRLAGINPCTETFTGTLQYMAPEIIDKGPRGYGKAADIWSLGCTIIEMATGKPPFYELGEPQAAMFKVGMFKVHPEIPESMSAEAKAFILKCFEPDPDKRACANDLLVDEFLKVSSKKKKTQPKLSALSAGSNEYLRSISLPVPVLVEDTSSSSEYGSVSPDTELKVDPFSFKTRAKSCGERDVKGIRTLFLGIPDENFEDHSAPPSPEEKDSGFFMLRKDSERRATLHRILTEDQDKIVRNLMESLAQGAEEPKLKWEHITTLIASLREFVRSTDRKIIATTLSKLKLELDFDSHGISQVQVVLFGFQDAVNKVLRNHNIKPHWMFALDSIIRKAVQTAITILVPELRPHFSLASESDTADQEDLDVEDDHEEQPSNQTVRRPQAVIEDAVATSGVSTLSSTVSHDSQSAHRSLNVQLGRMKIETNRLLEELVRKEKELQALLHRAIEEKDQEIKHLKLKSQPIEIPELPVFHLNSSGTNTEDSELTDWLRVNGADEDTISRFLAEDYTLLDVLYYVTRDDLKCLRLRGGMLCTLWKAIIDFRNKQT
In words: ASK1 kinase HTRF assay (KinEASE-STK). The following applies: HTRF detection; 3 nM ASK1 kinase, 1 uM STK-substrate-biotin. Format: biochemical. The procedure:
Reagents: Recombinant human ASK1 kinase was from Invitrogen Inc. HTRF KinEASE™-STK S3 kit was obtained from Cisbio (Bedford, Mass.). All other reagents were of the highest grade commercially available.
Assay: The assay measures the phosphorylation level of a biotinylatd peptide substrate by the ASK1 kinase using HTRF detection. ASK1 kinase assay is based on HTRF KinEASE™-STK manual from Cisbio. Test compound, 1 uM STK-substrate-biotin, 3 nM of ASK1 kinase are incubated with 1*Kinase buffer with 5 mM MgCl2 and 1 mM DTT. 250 nM Sa-XL 665(4*) and STK-antibody-Cryptate work solution are added to stop the reaction and phosphorylated peptide substrate is detected using Envision 2104 Multilabeled reader from PerkinElmer. The fluorescence is measured at 615 nm (Cryptate) and 665 nm (XL665) and a ratio of 665 nm/615 nm is calculated for each well. The resulting TR-FRET level (a ratio of 665 nm/615 nm) is proportional to the phosphorylation level of substrate.
Background: In TR-FRET formats the signal depends on donor and acceptor labels being close together.

With `CC(C)n1cnnc1-c1cccc(-c2ncc(-c3ccc(F)cc3F)o2)n1` [Compound I-049], the EC50 lay in the range of 50 to 500 nM.

`CC(C)n1cnnc1-c1cccc(-c2ncc(-c3c(F)cccc3F)o2)n1` [Compound I-050]: the EC50 was at most 50 nM. In the case of `C[C@H](CO)n1cnnc1-c1cccc(-c2ncc(-c3c(F)cccc3F)o2)n1` [Compound I-051] it was at most 50 nM; in that of `Cc1cc(F)c(-c2cnc(-c3cccc(-c4nncn4[C@H](C)CO)n3)o2)c(F)c1` [Compound I-052], at most 50 nM. `C[C@H](CO)n1cnnc1-c1cccc(-c2ncc(-c3c(F)cc(F)cc3F)o2)n1` [Compound I-053]: the EC50 is at most 50 nM. To `CC(C)n1cnnc1-c1cccc(-c2ncc(-c3ccc(N(C)C)cc3)o2)n1` [Compound I-057] belongs at most 50 nM; to `CC(C)n1cnnc1-c1cccc(-c2ncc(-c3cccc(N(C)C)c3)o2)n1` [Compound I-058], at most 50 nM.

With `C[C@H](CO)n1cnnc1-c1cccc(-c2ncc(-c3cccc(N(C)C)c3)o2)n1` [Compound I-059], the EC50 was at most 50 nM. In the case of `CNc1ccc(-c2cnc(-c3cccc(-c4nncn4C(C)C)n3)o2)cc1` [Compound I-060] it was at most 50 nM; in that of `CNc1cccc(-c2cnc(-c3cccc(-c4nncn4C(C)C)n3)o2)c1` [Compound I-061], at most 50 nM; in that of `CNc1cccc(-c2cnc(-c3cccc(-c4nncn4[C@H](C)CO)n3)o2)c1` [Compound I-062], at most 50 nM. In the case of `CC(C)n1cnnc1-c1cccc(-c2ncc(-c3cccc(N)c3)o2)n1` [Compound I-063] it was at most 50 nM; in that of `C[C@H](CO)n1cnnc1-c1cccc(-c2ncc(-c3cccc(N)c3)o2)n1` [Compound I-064], at most 50 nM.

Regarding `CC(C)n1cnnc1-c1cccc(-c2ncc(-c3ccc(N)cc3)o2)n1` [Compound I-065], the EC50 is at most 50 nM.

Take `C[C@H](CO)n1cnnc1-c1cccc(-c2ncc(-c3ccc(N)cc3)o2)n1` [Compound I-066]: the EC50 is at most 50 nM.

As for `CSc1ccc(-c2cnc(-c3cccc(-c4nncn4C(C)C)n3)o2)cc1` [Compound I-067], the EC50 is at most 50 nM. For the compound `CSc1cccc(-c2cnc(-c3cccc(-c4nncn4C(C)C)n3)o2)c1` [Compound I-068], the EC50 is at most 50 nM.

On to `COc1cccc(-c2cnc(-c3cccc(-c4nncn4C(C)C)n3)o2)c1` [Compound I-070], for which the EC50 fell in the range of 50 to 500 nM.

For the compound `COc1ccc(-c2cnc(-c3cccc(-c4nncn4C(C)C)n3)o2)cc1` [Compound I-071], the EC50 fell in the range of 50 to 500 nM.

For `CC(C)n1cnnc1-c1cccc(-c2ncc(-c3ccccc3O)o2)n1` [Compound I-072], the EC50 is at most 50 nM. To `CC(C)n1cnnc1-c1cccc(-c2ncc(-c3cccc(O)c3)o2)n1` [Compound I-073] belongs at most 50 nM; to `C[C@H](CO)n1cnnc1-c1cccc(-c2ncc(-c3cccc(O)c3)o2)n1` [Compound I-074], at most 50 nM.

As to `CC(C)Oc1cccc(-c2cnc(-c3cccc(-c4nncn4C(C)C)n3)o2)c1` [Compound I-076], the EC50 is at most 50 nM. In the case of `CCCCCCOc1cccc(-c2cnc(-c3cccc(-c4nncn4[C@H](C)CO)n3)o2)c1` [Compound I-077] it was at most 50 nM; in that of `COCCOc1cccc(-c2cnc(-c3cccc(-c4nncn4C(C)C)n3)o2)c1` [Compound I-078], at most 50 nM. To `CC(C)n1cnnc1-c1cccc(-c2ncc(-c3cccc(OC[C@@H]4CNCCO4)c3)o2)n1` [Compound I-079] belongs at most 50 nM; to `CC(C)n1cnnc1-c1cccc(-c2ncc(-c3cccc(OC[C@@H]4CN(C)CCO4)c3)o2)n1` [Compound I-080], at most 50 nM; to `CC(C)n1cnnc1-c1cccc(-c2ncc(-c3ccc(OC(F)(F)F)cc3)o2)n1` [Compound I-081], 50 to 500 nM. In the case of `CC(C)n1cnnc1-c1cccc(-c2ncc(-c3cccc(OC(F)(F)F)c3)o2)n1` [Compound I-082] it was 50 to 500 nM; in that of `CC(C)n1cnnc1-c1cccc(-c2ncc(-c3cccc(OC(F)F)c3)o2)n1` [Compound I-083], 50 to 500 nM. With `CC(C)n1cnnc1-c1cccc(-c2ncc(-c3ccc(OC(F)F)cc3)o2)n1` [Compound I-084], the concentration for a half-maximal effect (EC50) is at most 50 nM. In the case of `CC(C)n1cnnc1-c1cccc(-c2ncc(-c3ccccc3C(F)(F)F)o2)n1` [Compound I-085] it was 50 to 500 nM; in that of `CC(C)n1cnnc1-c1cccc(-c2ncc(-c3cccc(C(F)(F)F)c3)o2)n1` [Compound I-086], 50 to 500 nM; in that of `CC(C)n1cnnc1-c1cccc(-c2ncc(-c3cccc(C(F)F)c3)o2)n1` [Compound I-087], 50 to 500 nM. In the case of `CC(C)n1cnnc1-c1cccc(-c2ncc(-c3ccccc3C#N)o2)n1` [Compound I-089] it was 50 to 500 nM; in that of `CC(C)n1cnnc1-c1cccc(-c2ncc(-c3cccc(C#N)c3)o2)n1` [Compound I-090], 50 to 500 nM.

Take `CC(C)n1cnnc1-c1cccc(-c2ncc(-c3ccc(C#N)cc3)o2)n1` [Compound I-091]: the EC50 lay within 50 to 500 nM. For `COC(=O)c1cccc(-c2cnc(-c3cccc(-c4nncn4C(C)C)n3)o2)c1` [Compound I-092], the EC50 is at most 50 nM. In the case of `COC(=O)c1ccc(-c2cnc(-c3cccc(-c4nncn4C(C)C)n3)o2)cc1` [Compound I-093] it was 50 to 500 nM. To `CC(C)n1cnnc1-c1cccc(-c2ncc(-c3ccc(C(=O)O)cc3)o2)n1` [Compound I-094] belongs at most 50 nM; to `CC(C)n1cnnc1-c1cccc(-c2ncc(-c3ccc(C(N)=O)cc3)o2)n1` [Compound I-095], 50 to 500 nM.

Turning to `CSc1ccccc1-c1cnc(-c2cccc(-c3nncn3[C@H](C)CO)n2)o1` [Compound I-096], the EC50 is at most 50 nM. To `C[C@H](CO)n1cnnc1-c1cccc(-c2ncc(-c3cccc(S(C)(=O)=O)c3)o2)n1` [Compound I-097] belongs at most 50 nM. To `C[C@H](CO)n1cnnc1-c1cccc(-c2ncc(-c3ccc(S(C)(=O)=O)cc3)o2)n1` [Compound I-098] belongs at most 50 nM. To `C[C@H](CO)n1cnnc1-c1cccc(-c2ncc(-c3cccc(S(N)(=O)=O)c3)o2)n1` [Compound I-099] belongs at most 50 nM. Consider `C[C@H](CO)n1cnnc1-c1cccc(-c2ncc(-c3ccc(S(N)(=O)=O)cc3)o2)n1` [Compound I-100], for which the EC50 is at most 50 nM. Regarding `CC(C)n1cnnc1-c1cccc(-c2ncc(-c3ccc4ccccc4c3)o2)n1` [Compound I-101], the EC50 is 50 to 500 nM.

On to `CC(C)n1cnnc1-c1cccc(-c2ncc(-c3ccc4c(c3)OCCO4)o2)n1` [Compound I-102], for which the EC50 was at most 50 nM. To `CC(C)n1cnnc1-c1cccc(-c2ncc(-c3ccc4c(c3)CCCC4)o2)n1` [Compound I-103] belongs 50 to 500 nM; to `CC(C)n1cnnc1-c1cccc(-c2ncc(-c3cccc(-c4ccccc4)c3)o2)n1` [Compound I-104], 50 to 500 nM. For `CC(C)n1cnnc1-c1cccc(-c2ncc(-c3ccc(-c4ccccc4)cc3)o2)n1` [Compound I-105], the EC50 lay within 50 to 500 nM. With `CC(C)n1cnnc1-c1cccc(-c2ncc(-c3cccc(-c4ccccn4)c3)o2)n1` [Compound I-106], the EC50 fell in the range of 50 to 500 nM. To `CC(C)n1cnnc1-c1cccc(-c2ncc(-c3cccc(-c4cccnc4)c3)o2)n1` [Compound I-107] belongs at most 50 nM.

Source of the values: patent US20210179600A1, “OXAZOLE AND THIAZOLE DERIVATIVES AS INHIBITORS OF ASK1” (Hepagene Therapeutics (HK) Limited, priority 2017, published 2021).
